What was measured:
SARS-CoV-2 [1] = test: microbe, parasite or virus in culture; assay type: functional, organism-based, Chlorocebus sabaeus, Vero C1008; settings: Severe acute respiratory syndrome coronavirus 2, Vero C1008, 48 h
SARS-CoV-2 [2] = test: microbe, parasite or virus in culture; settings: Severe acute respiratory syndrome coronavirus 2, Vero C1008, 48 h
in vitro = settings: chlorocebus sabaeus
[3] = Vero E6 (Vero C1008) cells, CC50
[4] = Vero E6 (Vero C1008) cells, pCC50

| Structure (SMILES) | IC50 (SARS-CoV-2 [1]; read-out: IC50) | IC50 (SARS-CoV-2 [1]; read-out: pIC50 (converted)) | IC50 (SARS-CoV-2 [2]) | IC50 (SARS-CoV-2 [2]; read-out: pIC50 (converted)) | CC50 at 48 h (in vitro; [3]) | CC50 at 48 h (in vitro; [4]) | CC50 at 48 h (in vitro; vero c1008, CC50) | CC50 at 48 h (in vitro; vero c1008, pCC50) |
| --- | --- | --- | --- | --- | --- | --- | --- | --- |
| CCN(CCO)CCCC(C)Nc1ccnc2cc(Cl)ccc12 (centres undefined) [HYDROXYCHLOROQUINE] | ~17.1 µM | ~17 µM | ~11.6 µM | ~11.5 µM | 47.9 µM | 47.9 µM | – | – |
| Clc1ccc(C(c2ccccc2)N2CCN(C/C=C/c3ccccc3)CC2)cc1 (centres undefined) [CLOCINIZINE] | 20.9 µM | 20.9 µM | > 100 µM | > 100 µM | 21.9 µM | 21.9 µM | – | – |
| N#Cc1ccc2c(c1)N(CCCN1CCC(O)CC1)c1ccccc1S2 [PERICIAZINE] | > 100 µM | > 100 µM | > 20 µM | > 20 µM | 12.7 µM | 12.6 µM | – | – |
| CC(=O)c1ccc2c(c1)N(CCCN1CCN(CCO)CC1)c1ccccc1S2 [ACETOPHENAZINE] | > 100 µM | > 100 µM | > 100 µM | > 100 µM | ~14.6 µM | ~14.5 µM | – | – |
| COC(=O)C1C2CC3c4[nH]c5cc(OC)ccc5c4CCN3CC2CC(OC(=O)/C=C/c2cc(OC)c(OC)c(OC)c2)C1OC (centres undefined) | > 100 µM | > 100 µM | > 50.1 µM | > 50.1 µM | 5.5 µM | 5.5 µM | – | – |
| Cc1ccc(CCCO)c(NCc2ccc3nc(NCCCN4CCOCC4)n(Cc4nc(C)ccc4O)c3c2)c1 | > 20 µM | > 20 µM | > 20 µM | > 20 µM | 9.33 µM | 9.33 µM | – | – |
| COC(=O)C1C2CC3c4[nH]c5ccccc5c4CCN3CC2CC(OC(=O)c2cc(OC)c(OC)c(OC)c2)C1OC (centres undefined) | > 25.1 µM | > 25.1 µM | > 20 µM | > 20 µM | 11.5 µM | 11.5 µM | – | – |
| CN1CCN(CC/C=C2/c3ccccc3Sc3ccc(S(=O)(=O)N(C)C)cc32)CC1 [THIOTHIXENE] | 5.75 µM | 5.75 µM | > 100 µM | > 100 µM | 4.96 µM | 4.9 µM | – | – |
| CCC1(CC)C(=O)NCC(C)C1=O (centres undefined) [METHYPRYLON] | > 25.1 µM | > 25.1 µM | 18.4 µM | 18.2 µM | > 25.1 µM | > 25.1 µM | – | – |
| c1ccc(CN(CCN(Cc2ccccn2)Cc2ccccn2)Cc2ccccn2)nc1 | > 100 µM | > 100 µM | > 3.09 µM | > 3.09 µM | 1.93 µM | 1.91 µM | – | – |
| CCCCc1oc2ccc(NS(C)(=O)=O)cc2c1C(=O)c1ccc(OCCCN(CCCC)CCCC)cc1 [DRONEDARONE] | > 100 µM | > 100 µM | ~3.02 µM | ~3.02 µM | 3.85 µM | 3.8 µM | – | – |
| O=C1NC2CCCCN2C12CCN(CCCN1c3ccccc3CCc3ccc(Cl)cc31)CC2 (centres undefined) [MOSAPRAMINE] | > 100 µM | > 100 µM | 7.41 µM | 7.41 µM | 8.13 µM | 8.13 µM | – | – |
| COc1ccc2c(c1)N(CC(C)CN(C)C)c1ccccc1S2 (centres undefined) | > 100 µM | > 100 µM | > 100 µM | > 100 µM | 22.9 µM | 22.9 µM | – | – |
| CC(C)(Cc1c[nH]c2ccccc12)NCC(O)COc1ccccc1C#N (centres undefined) [BUCINDOLOL] | > 100 µM | > 100 µM | 17 µM | 17 µM | 30.9 µM | 30.9 µM | – | – |
| CCN(CC)CCNC(=O)c1ccc(NS(C)(=O)=O)cc1 [SEMATILIDE] | > 100 µM | > 100 µM | 3.89 µM | 3.89 µM | > 100 µM | > 100 µM | – | – |
| Fc1ccc([C@@H]2CCNC[C@H]2COc2ccc3c(c2)OCO3)cc1 [PAROXETINE] | > 100 µM | > 100 µM | 15.1 µM | 15.1 µM | 16.6 µM | 16.6 µM | – | – |
| CCCCCCC(C)(C)c1cc(O)c([C@H]2CC(=O)[C@H]3C[C@@H]2C3(C)C)c(OC(=O)/C=C/C(=O)O)c1 [PRS-211375] | > 50.1 µM | > 50.1 µM | > 100 µM | > 100 µM | 7.67 µM | 7.59 µM | – | – |
| Cc1[nH]c(/C=C2/C(=O)Nc3ccccc32)c(C)c1CCC(=O)O | > 50.1 µM | > 50.1 µM | ~2 µM | ~2 µM | > 50.1 µM | > 50.1 µM | – | – |
| COc1cc(/C=C/C(=O)CC(=O)/C=C/c2ccc(O)c(OC)c2)ccc1O [CURCUMIN] | > 100 µM | > 100 µM | > 100 µM | > 100 µM | 14.8 µM | 14.8 µM | – | – |
| Cc1ccc(-c2nc3c(nc2-c2ccc(C)cc2)N(CCCCCCC(=O)O)CCC3)cc1 | ~16.6 µM | ~16.6 µM | 17.4 µM | 17.4 µM | 50.1 µM | 50.1 µM | – | – |

| Structure (SMILES) | IC50 (SARS-CoV-2 [1]; read-out: IC50) | IC50 (SARS-CoV-2 [1]; read-out: pIC50 (converted)) | IC50 (SARS-CoV-2 [2]) | IC50 (SARS-CoV-2 [2]; read-out: pIC50 (converted)) | CC50 at 48 h (in vitro; [3]) | CC50 at 48 h (in vitro; [4]) | CC50 at 48 h (in vitro; vero c1008, CC50) | CC50 at 48 h (in vitro; vero c1008, pCC50) |
| --- | --- | --- | --- | --- | --- | --- | --- | --- |
| COc1ccccc1N1CCN(CCCCNC(=O)c2ccc3ccccc3c2)CC1 [BP-897] | > 25.1 µM | > 25.1 µM | > 25.1 µM | > 25.1 µM | 30.2 µM | 30.2 µM | – | – |
| c1ccc2c(c1)Sc1ccccc1N2CC1CN2CCC1CC2 (centres undefined) [MEQUITAZINE] | > 100 µM | > 100 µM | 7.76 µM | 7.76 µM | 7.76 µM | 7.76 µM | – | – |
| CC(C)(C)c1cc(C(C)(C)C)c(NC(=O)c2c[nH]c3ccccc3c2=O)cc1O [IVACAFTOR] | > 25.1 µM | > 25.1 µM | 4.57 µM | 4.57 µM | 4.62 µM | 4.57 µM | – | – |
| CNCc1ccc(C)c(NC(=O)c2ccc(Nc3nc(-c4ccccc4)c4ccccc4n3)cc2)c1 [BMS-833923] | > 100 µM | > 100 µM | 2.95 µM | 2.95 µM | 3.09 µM | 3.09 µM | – | – |
| COc1cc2c(N3CCN(C(=O)Nc4ccc(OC(C)C)cc4)CC3)ncnc2cc1OCCCN1CCCCC1 [TANDUTINIB] | > 100 µM | > 100 µM | > 100 µM | > 100 µM | 11.5 µM | 11.5 µM | – | – |
| CC(=O)N1CCN([C@H]2CCN(C(=O)N(C)[C@H](C)c3cc(C(F)(F)F)cc(C(F)(F)F)c3)[C@@H](c3ccc(F)cc3C)C2)CC1 [CASOPITANT] | > 25.1 µM | > 25.1 µM | > 25.1 µM | > 25.1 µM | 17.8 µM | 17.8 µM | – | – |
| CCN(CC)CCOc1ccc(-c2nc3cc(Cl)ccc3s2)cc1 [HALETHAZOLE] | > 100 µM | > 100 µM | ~3.89 µM | ~3.89 µM | 3.72 µM | 3.72 µM | – | – |
| CNCCCCOc1ccccc1Cc1ccccc1 [BIFEMELANE] | 20.9 µM | 20.9 µM | > 100 µM | > 100 µM | – | – | 26.9 µM | 26.9 µM |
| CCCCCCC(C)(C)c1cc(O)c2c(c1)OC(C)(C)[C@@H]1CC=C(C(=O)O)C[C@@H]21 [LENABASUM] | > 100 µM | > 100 µM | > 100 µM | > 100 µM | ~21.4 µM | ~21.4 µM | – | – |
| C[C@H](Oc1cc(-c2cnn(C3CCNCC3)c2)cnc1N)c1c(Cl)ccc(F)c1Cl | ~4.47 µM | ~4.47 µM | 6.76 µM | 6.76 µM | 4.42 µM | 4.37 µM | – | – |
| CN(C(=O)CN(CCO)CC(=O)N(C)C(C)(C)Cc1ccccc1)C(C)(C)Cc1ccccc1 [OXETHAZAINE] | > 100 µM | > 100 µM | 18.6 µM | 18.6 µM | 26.3 µM | 26.3 µM | – | – |
| CC(=O)NC1(c2ccccc2)CCN(CCC(CN(C)C(=O)c2ccccc2)c2ccc(Cl)c(Cl)c2)CC1 (centres undefined) | > 100 µM | > 100 µM | > 100 µM | > 100 µM | 23.4 µM | 23.4 µM | – | – |
| CN(C)CCCn1cc(-c2ccccc2)c(-c2ccccc2)n1 [FEZOLAMINE] | > 100 µM | > 100 µM | 14.5 µM | 14.5 µM | 39.8 µM | 39.8 µM | – | – |
| COc1cc(/C=C/C(=O)N2CCC=CC2=O)cc(OC)c1OC [PIPLARTINE] | > 50.1 µM | > 50.1 µM | > 50.1 µM | > 50.1 µM | 9.55 µM | 9.55 µM | – | – |
| O=c1[nH]c2ccccc2n1CCCN1CCN(C(c2ccccc2)c2ccccc2)CC1 [OXATOMIDE] | > 100 µM | > 100 µM | > 100 µM | > 100 µM | ~12.6 µM | ~12.6 µM | – | – |
| CNCc1ccc(-c2cc(-c3nc(-c4ccc(S(=O)(=O)C(C)C)cc4)cnc3N)on2)cc1 [BERZOSERTIB] | ~7.16 µM | ~7.08 µM | > 5.01 µM | > 5.01 µM | 10.2 µM | 10.2 µM | – | – |
| OC1(c2ccc(Cl)c(C(F)(F)F)c2)CCN(CCCC(c2ccc(F)cc2)c2ccc(F)cc2)CC1 [PENFLURIDOL] | > 100 µM | > 100 µM | > 100 µM | > 100 µM | 3.59 µM | 3.55 µM | – | – |
| CN1CCC(c2cc3cc(Cl)ccc3o2)CC1 | > 100 µM | > 100 µM | 17.2 µM | 17 µM | 34.7 µM | 34.7 µM | – | – |
| CCN(CC)CCOC1(c2ccccc2)CCN(CCNc2ccccc2)CC1 [DIAMOCAINE] | 22.4 µM | 22.4 µM | ~9.55 µM | ~9.55 µM | 46.8 µM | 46.8 µM | – | – |

From ChEMBL document CHEMBL4651402, “Screening of ~5500 FDA-approved drugs and clinical candidates for anti-SARS-CoV-2 activity” (2021)
